The record followed here is PMC12087296 (Microbial Biotechnology, 2025).

Read-outs that look alike come from different tables or passages of the source.

Assay [1] concerns the target T1, TlpQ (Pseudomonas aeruginosa, UniProt Q9I0I4). The assay is described as follows: isothermal titration calorimetry, […]°C. Type of assay: binding.
Assay [2] addresses T1, TlpQ. Kind of assay: isothermal titration calorimetry, […]°C. Type of assay: binding. This is another data set of the same source. A general note: ITC needs no label: the signal is the heat of the interaction.

T1 sequence (Q9I0I4 33-363 limits assumed): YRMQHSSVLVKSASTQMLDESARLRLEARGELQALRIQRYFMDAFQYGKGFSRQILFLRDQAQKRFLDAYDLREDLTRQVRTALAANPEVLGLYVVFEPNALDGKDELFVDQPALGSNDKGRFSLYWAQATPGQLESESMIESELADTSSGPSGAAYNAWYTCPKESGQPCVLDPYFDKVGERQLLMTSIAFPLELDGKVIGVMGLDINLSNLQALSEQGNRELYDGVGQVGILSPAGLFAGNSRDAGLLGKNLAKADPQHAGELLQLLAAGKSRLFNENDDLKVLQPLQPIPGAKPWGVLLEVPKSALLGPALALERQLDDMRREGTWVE

For `NCCc1ccc(O)c(O)c1` [dopamine], the dissociation constant Kd – broadly, the equilibrium constant for the complex coming apart – on TlpQ [1] stood at 137 µM. With `CNC[C@H](O)c1ccc(O)c(O)c1` [epinephrine], the affinity at TlpQ [2], expressed as Kd, was 363 µM.
